Experimental data from patent publication US12097213B2, “Sequential treatment of cancers using 6-thio-dG, checkpoint inhibitors and radiation therapy” (The Board of Regents of the University of Texas System, priority 2020, dated 2024).

How the values were obtained:
[1] = test system: A375 tumor cells; experiment: A375 tumor model in NSG-SGM3 and humanized NSG-SGM3 mice; format: in vivo, mouse
Protocol: FIGS. 13A-F (related to FIGS. 6A-E). (FIGS. 13A-C) 12 weeks after humanized mouse reconstitution, human CD45+ cells and CD3+ T cells in mouse peripheral blood were tested by flow cytometry. (FIG. 13D) Cell viability (IC50) of 6-thio-dG in A375 human melanoma cancer cells. Cells were treated with 6-thio-dG for 4 days. (FIG. 13E) NSG-SGM3 mice (n=5) were inoculated with 2×10^6 A375 tumor cells and treated with 6-thio-dG (3 mg/kg, day 7 and day 8) or anti-PD-L1 plus anti-CTLA-4 (200 μg i.p., day 10 and day 13) or the combination of 6-thio-dG plus anti-PD-L1 and anti-CTLA-4. Tumor growth was measured every 3 days. (FIG. 13F) Humanized NSG-SGM3 mice (n=5-7) were inoculated with 2×10^6 A375 tumor cells and treated with 6-thio-dG (3 mg/kg, day 13 and day 14) or anti-PD-L1 plus anti-CTLA-4 (200 μg i.p., day 16 and day 19) or the combination of 6-thio-dG plus anti-PD-L1 and anti-CTLA-4. Tumor growth was measured every 3 days. Data were shown as mean±SEM. P value was determined by two-tailed unpaired t test (FIGS. 13B and 13C, n.s. p>0.05) or two-way ANOVA (FIG. 13F).
Humanized mouse tumor models. Humanized mouse reconstitution was previously described (Qiao et al., 2019). Briefly, four-week-old NSG-SGM3 female mice were irradiated with 100 cGy (X-ray irradiation with X-RAD 320 irradiator) one day prior to human CD34+ cells transfer. […] Tumor volumes were measured twice a week. […]

[2] = test system: bone marrow derived DCs (BMDCs); experiment: In vitro co-culture of BMDC with 6-thio-dG pretreated tumor cells and T cells; format: cell-based, mouse
Protocol: In vitro co-culture of bone marrow dendritic cells (BMDC) and T cells. Single-cell suspensions of bone marrow (BM) cells were collected from tibias and femurs of C57BL/6 mice. The BM cells were placed in 10 cm dish and cultured with complete RPMI 1640 medium containing 20 ng/mL recombinant mouse GM-CSF (BioLegend). Fresh medium with was added into the culture on day 3 and day 6. The BMDCs were harvested Day 7. CD8+ T cells were isolated from lymph nodes and spleens of OT-1 transgenic mice with a negative CD8+ T cell isolation kit (Stemcell). MC38-OVA cells pretreated with 200 nM 6-thio-dG for 4 hrs. Then the drug was washed out, tumor cells were continued to culture for 72 hrs and were harvested on the same day as BMDC harvest. Then MC38-OVA cells were co-cultured with BMDC for overnight. Supernatant was collected for IFN-β ELISA test (PBL). BMDCs were sorted with CD11c+ positive selection kit (Stemcell) and co-cultured with OT-1 CD8+ T cells for 48 hrs. Supernatants were collected and IFN-γ was measured by cytometric bead array assay (BD Biosciences).
Quantitative real-time PCR. Real-time PCR was performed with SsoAdvanced™ Universal SYBR® Green Supermix (Bio-Rad) according to the manufacturer's instructions with different primer sets (human MT-CO1, forward primer 5′-[…]-3′ (SEQ ID NO: 3), reverse primer 5′-CGGGGCATTCCG GATAGGCC-3′ (SEQ ID NO: 4); human18s rRNA, forward primer 5′-[…]-3′ (SEQ ID NO: 5), reverse primer 5′-[…]-3′ (SEQ ID NO: 6); mouse IFN-β, forward primer 5′-ATGAGTGGTGGTTGCAGGC-3′ (SEQ ID NO: 7), reverse primer 5′-[…]-3′ (SEQ ID NO: 8); mouse GAPDH, forward primer 5′-CATCAAGAA GGTGGTGAAGC-3′ (SEQ ID NO: 9), reverse primer 5′-[…]-3′) (SEQ ID NO: 10) mouse GAPDH was used as the internal control. 2^−ΔΔCt method was used to calculate relative expression changes.

[3] = test system: mouse BMDC co-cultured with HCT116; experiment: Cytosolic DNA extraction and qPCR in DCs co-cultured with HCT116; format: cell-based; conditions: HCT116 pretreated with 500 nM 6-thio-dG; co-culture 4 hrs
Protocol: Cytosolic DNA extraction and quantitative real-time PCR. HCT 116 cells were pretreated with 500 nM 6-thio-dG for 4 hrs. Then drug was washed out, tumor cells were continued to culture for 72 hrs and harvest on the same day as BMDC harvest. Then HCT116 cells were mixed 1:1 with 1×10^6 BMDC for 4 hrs. BMDC was purified and divided into two equal aliquots.
One aliquot was extracted for total genomic DNA with Purelink Genomic DNA kit (Invitrogen) and served as normalization control. The other aliquot was resuspended in 100 μL cytosolic extract buffer containing 150 mM NaCl, 50 mM HEPES and […] digitonin (Sigma) and incubated for 10 mins at RT for plasma membrane permeabilization (West et al., 2015). Then cells were centrifuged to pellet intact cells. The cytosolic supernatants were collected and centrifuged at 12000 g for 10 mins to pellet the remaining cellular debris. Then cytosolic DNA was extracted with Purelink Genomic DNA kit (Invitrogen). Quantitative PCR was performed on both whole-cell extracts and cytosolic fractions using human DNA primers and mouse DNA primers (Xu et al., 2017).
Quantitative real-time PCR. […]

[4] = test system: HCT116 tumor cells; experiment: HCT116 tumor model in NSG-SGM3 and humanized NSG-SGM3 mice; format: in vivo, mouse; conditions: three doses, 3 mg/kg
Source text: Humanized mouse tumor models. Humanized mouse reconstitution was previously described (Qiao et al., 2019). Briefly, four-week-old NSG-SGM3 female mice were irradiated with 100 cGy (X-ray irradiation with X-RAD 320 irradiator) one day prior to human CD34+ cells transfer. Cord blood was obtained from UT Southwestern Parkland Hospital. Human CD34+ cells were purified from cord blood by density gradient centrifugation (Ficoll® Paque Plus, GE healthcare) followed by positive immunomagnetic selection with anti-human CD34 microbeads (Stemcell). 1×10^5 CD34+ cells were intravenously injected into each recipient mouse. 12 weeks after engraftment, humanized mice with over 50% human CD45+ cells reconstitution and age and sex matched non-humanized mice were inoculated with 1×10^6 HCT116 tumor cells subcutaneously on the right flank. 3 mg/kg 6-thio-dG was intraperitoneally given on days 7, 8 and 9. Tumor volumes were measured twice a week. Experiments were performed in compliance with UTSW Human Investigation Committee protocol and UTSW Institutional Animal Care and Use Committee.

[5] = test system: tumor cells; experiment: Autophagy in tumor cells (data not shown); format: cell-based; conditions: after 6-thio-dG treatment

**Q.** What does the source list for `Nc1nc2c(ncn2[C@H]2C[C@H](O)[C@@H](CO)O2)c(=S)[nH]1` [6-thio-dG, 6-thio-2′-deoxyguanosine]?
**A.** tumor growth / tumor burden ([1]; humanized NSG-SGM3 mice, 6-thio-dG 3 mg/kg day 13 and 14, anti-PD-L1 plus anti-CTLA-4 200 μg i.p. day 16 and 19): partially delayed tumor growth; tumor growth ([1]; immunocompromised NSG-SGM3 mice, 3 mg/kg, day 7 and day 8): did not observe any effect; IFN-γ production by OT-1 CD8+ T cells (cross-priming capacity of DCs) ([2]; MC38-OVA pretreated with 200 nM 6-thio-dG, DC/T cell co-culture 48 hrs, CBA): significant increase; IFN-β in DCs, WT vs Tmem173KO ([2]; MC38 pretreated with 200 nM 6-thio-dG, qPCR): induced IFN-β production in DCs in a STING-dependent manner; IFN-β production by DCs ([2]; co-culture with tumor cells pretreated with 200 nM 6-thio-dG, ELISA): significantly increased; human DNAs (MT-CO1 and human 18S) in the cytosol of mouse DCs [3]: increase; tumor growth ([4]; humanized NSG-SGM3 mice): significantly delayed tumor growth; tumor growth ([4]; immunocompromised NSG-SGM3 mice): did not have significant difference; activation of autophagy in tumor cells [5]: did not see activation of autophagy
